Experimental findings from patent publication US8927594B2, “Compounds from soft coral, method of preparation and pharmaceutical uses thereof” (National Sun Yat-Sen University, priority 2010, dated 2015) are described below.

For data set [1], the system named is iNOS. Kind of data set: iNOS protein expression in LPS-stimulated RAW264.7 macrophage cells, immunoblot analysis. In kind it is cell-based, mouse. As to conditions: for levels of iNOS protein relative to control cells stimulated with LPS only: concentration of 10 mM (so in the source), LPS alone = 100%, mean±SEM, n=6; for effect on expression of inducible nitric oxide synthase of macrophage cells stimulated with LPS (in words, summary): concentration not stated; for effect on expression of iNOS protein relative to control cells stimulated with LPS only (in words): FIG. 2. How it is done: (§1) A mouse macrophage cell line, RAW 264.7, purchased from the American Type Culture Collection (ATCC, No TIB-71) was chosen in the in vitro model. The cells were cultured in DMEM (Dulcbecco/s Modified Eagle medium) containing 10% fetal bovine serum (FBS) and penicillin G (100 U/ml) and streptomycin (100 μg/ml) at 37° C. and 5% CO2. When reaching 80% confluence, the cells were subcultured with trypsin. The cells were subjected to an anti-inflammation assay after subcultured for 36 hours. 3×10^6 RAW264.7 cells were cultured in a 10-cm culture dish and administered with lipopolysaccharide (LPS, 0.01 μg/ml; Sigma L2654). After 16 hours, the cells were collected. In an experiment group, the compound represented by formula 3 was added into the culture dish and followed by LPS before 10 minutes.
(§2) The collected RAW264.7 cells were dissolved with 200 μL of 4° C. lysis buffer (50 mM Tris [pH 7.5], 150 mM NaCl, 1% TritonX-100, 0.1 mM EDTA, 0.1 mM EGTA, 10 μg PMSF, 1 aprotinin, 20 mM NaF, and 0.2 mM Na3VO4). The samples were centrifuged at 25,000 g for 30 minutes at 4° C. for removing the pellet. The supernatant was assayed with Bio-Rad DC protein assay kit (Bio-Rad Laboratories, Hercules, Calif., USA) and the absorbance was read with an ELISA reader (Thermo Electron Corporation, USA) for estimating the protein contents. The calibrated samples with equal volumes were added with a sample buffer (2% SDS, 10% glycerol, 0.1% bromophenol blue, 10% 2-mercaptoethanol, and 50mM Tris) of the same volume. Proteins were separated with 10% SDS-PAGE and transferred to a PVDF membrane ([…], Immobilon-P, Millipore, Bedford, Mass., USA) (1.5 A, 4° C., 2.5 hours). The transferred PVDF membranes were blocked with TTBS (Tris-HCl 20 mM, NaCl 137 mM, pH 7.4 and 0.1% Tween 20) containing 5% skim milk at room temperature for 1 hour and reacted with polyclonal anti-inducible nitric oxide synthase antibody (Transduction Laboratories, Lexington, Ky., USA) or polyclonal anti-cyclooxygenase-2 antibody (Cayman, Ann Arbor, Mich., USA) at room temperature for 3 hours. After washed with TTBS three times, the samples were reacted with HRP-conjugated anti-rabbit IgG antibody (1:2000) at room temperature for 1 hour. After washed with TTBS for three times, an enhanced chemiluminescence detection kit was used for reating with the PVDF membrane and exposed with an X-ray film (Kodak X-OMAT LS, Kodak, Rochester, N.Y., USA) for detecting the protein expression. The relative amount was calculated with Image-Pro plus 4.5 software (Media Cybernetics, Silver Spring, USA). The group added with only LPS was taken as 100%. β-actin (monoclonal antibody, Sigma, St Louis, Mo., USA) was taken as an internal control.
(Immunoblotting shows a protein as a band on a membrane.)

The subject of data set [2] is COX-2. Briefly: COX-2 protein expression in LPS-stimulated RAW264.7 macrophage cells, immunoblot analysis. In kind it is cell-based, mouse. As to conditions: for effect on COX-2 expression with LPS treatment (in words): FIG. 2; for effect on expression of cyclooxygenase-2 of macrophage cells stimulated with LPS (in words, summary): concentration not stated. How it is done: as §1, §2

Data set [3] in a line: Cytotoxicity, MTT colorimetric method, Hep G2. Format: cell-based. To be noted: human, Hep G2 cells (hepatocellular carcinoma). How it is done: (§3) Cell lines were purchased from the American Type Culture Collection (ATCC). Cytotoxicity assays were performed using the MTT [3-(4,5-dimethylthiazol-2-yl)-2,5-diphenyltetrazolium bromide] colorimetric method.
On the technique in general: Formazan colour is commonly taken as a measure of viable cells.

Data set [4] can be described thus: Cytotoxicity, MTT colorimetric method, Hep 3B. To be noted: human, Hep 3B cells (hepatocellular carcinoma). In kind it is cell-based. How it is done:
as §3

Data set [5] in a line: Cytotoxicity, MTT colorimetric method, MDA-MB-231. Format: cell-based. To be noted: human, MDA-MB-231 cells (breast carcinoma). How it is done: as §3
Data set [6] in a line: Cytotoxicity, MTT colorimetric method, MCF-7. In kind it is cell-based. To be noted: human, MCF-7 cells (breast carcinoma). How it is done:
as §3

Data set [7] can be described thus: Cytotoxicity, MTT colorimetric method, A549. To be noted: human, A549 cells (lung carcinoma). In kind it is cell-based. How it is done:
as §3

Data set [8] can be described thus: Cytotoxicity, MTT colorimetric method, Ca9-22. In kind it is cell-based. To be noted: human, Ca9-22 cells (gingival carcinoma). How it is done:
as §3

Where [9] appears, read: 10 μM, RAW264.7 cells + LPS, same experimental condition.

On to `CCCC(=O)O[C@]1(C)CCC[C@@](C)([S+](C)[O-])C[C@H]2O[C@@H]1[C@H]1[C@@H]2[C@](C)(OC(C)=O)CC[C@@H]1C(C)C` (stereo partly shown) [formula 2], for which, in data set [1] (RAW264.7 cells + LPS), the “levels of iNOS protein relative to control cells stimulated with LPS only” value is listed as 8.8±1.0%. In addition, the “effect on expression of inducible nitric oxide synthase of macrophage cells stimulated with LPS (in words, summary)” value in data set [1] is listed as “significantly lowered”.

With `CCCC(=O)O[C@]1(C)CC[C@H](OC(C)=O)[C@@](C)(O)C[C@H]2O[C@@H]1[C@@H]1[C@@H](C(C)C)[C@H](OC(C)=O)[C@@H](OC(C)=O)[C@@](C)(O)[C@@H]12` [formula 11], the “effect on expression of iNOS protein relative to control cells stimulated with LPS only (in words)” value in data set [1] (10 μM, RAW264.7 cells + LPS) is given as “enhance the expression”. Besides, the “effect on COX-2 expression with LPS treatment (in words)” value in data set [2] (10 μM, RAW264.7 cells + LPS) is recorded as “enhance the expression”.

`O=C(/C=C/c1ccc(O)c(O)c1)OCCc1ccccc1` [CAPE, caffeic acid phenylethyl ester, reference compound]: in data set [1] (setting [9]), the “level of iNOS, relative intensity (LPS alone = 100%)” value came out at 2.5±3.7%. The “level of COX-2, relative intensity (LPS alone = 100%)” value in data set [2] (setting [9]) amounted to 67.2±13.4%.

Take `CCCC(=O)O[C@H]1[C@H](C(C)C)[C@@H]2[C@@H]([C@H]3C[C@](C)([S+](C)[O-])CCC[C@@](C)(OC(=O)CCC)[C@@H]2O3)[C@](C)(O)[C@@H]1OC(C)=O` (stereo partly shown) [formula 3]: in data set [1] (RAW264.7 cells + LPS), the “levels of iNOS protein relative to control cells stimulated with LPS only” value worked out at 17.8±4.7%. Moreover, the “effect on expression of inducible nitric oxide synthase of macrophage cells stimulated with LPS (in words, summary)” value in data set [1] is listed as “significantly lowered”.

Regarding `C=C1C[C@H]2O[C@H]([C@@H]3[C@@H](C(C)C)[C@H](OC(=O)CC[S+](C)[O-])[C@@H](OC(C)=O)[C@@](C)(O)[C@@H]32)[C@](C)(OC(=O)CCC)CC[C@@H]1O` (stereo partly shown) [formula 4], the “levels of iNOS protein relative to control cells stimulated with LPS only” value in data set [1] (RAW264.7 cells + LPS) is reported as 11.3±1.5%. In addition, the “effect on expression of inducible nitric oxide synthase of macrophage cells stimulated with LPS (in words, summary)” value in data set [1] is “significantly lowered”. Besides, the “COX-2 expression relative to control cells stimulated with LPS only” value in data set [2] (concentration of 10 mM (so in the source), RAW264.7 cells + LPS, LPS alone = 100%, mean±SEM, n=6) worked out at 7.2±2.5%. The “effect on expression of cyclooxygenase-2 of macrophage cells stimulated with LPS (in words, summary)” value in data set [2] is reported as “significantly lowered”.

Usually IC50 stands for the concentration at which inhibition is half-maximal. Regarding `C=C1CC[C@@H](O)[C@]2(C)C[C@H](OC(C)=O)[C@@H]3[C@@H]([C@@H](C(C)C)CC[C@@]3(C)O)[C@H]12` [formula 16], the IC50 in data set [3] turned out to be 12.5 µg/mL; in data set [4], 9.6 µg/mL; in data set [5], 16 µg/mL; in data set [6] it was 9.9 µg/mL; in data set [7] it was 15.3 µg/mL; in data set [8], 13.6 µg/mL.

As to `C/C1=C/[C@@H]2[C@@H](C(C)C)CC[C@@](C)(O)[C@@H]2CC/C(C)=C/CC1` [formula 14], the “effect on expression of iNOS protein relative to control cells stimulated with LPS only (in words)” value in data set [1] (10 μM, RAW264.7 cells + LPS) is “significantly reduce”. In addition, the “effect on expression of inducible nitric oxide synthase of macrophage cells stimulated with LPS (in words, summary)” value in data set [1] is recorded as “significantly reduce”. Besides, the “effect on COX-2 expression with LPS treatment (in words)” value in data set [2] (10 μM, RAW264.7 cells + LPS) is “effectively reduce”. Moreover, the “effect on expression of cyclooxygenase-2 of macrophage cells stimulated with LPS (in words, summary)” value in data set [2] is recorded as “effectively reduce”.
